Data reported in PubChem BioAssay (NCI).
Where “and” joins values, the source holds several entries; their conditions need not be identical. Equal entries are not always repeated.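 Following 48 hours of exposure in 96-well plates, responses at five concentrations were used to interpolate endpoints linearly. GI50 marks 50% less growth. At the TGI there is no net growth.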

Legend:
Test in all cases: DTP human tumour cell line panel, 48 h
A549 NSCLC = system: A549 NSCLC
COLO 205 colon = system: COLO 205 colon
HCT-15 colon = system: HCT-15 colon
HL-60(TB) leukemia = system: HL-60(TB) leukemia
MDA-N = system: MDA-N
MOLT-4 leukemia = system: MOLT-4 leukemia
PC-3 prostate = system: PC-3 prostate
SF-539 CNS = system: SF-539 CNS
SN12C renal = system: SN12C renal
SW-620 colon = system: SW-620 colon

Structure (SMILES)	TGI (A549 NSCLC)	TGI (COLO 205 colon)	TGI (HCT-15 colon)	TGI (HL-60(TB) leukemia)	TGI (MDA-N)	TGI (MOLT-4 leukemia)	TGI (PC-3 prostate)	TGI (SF-539 CNS)	TGI (SN12C renal)	TGI (SW-620 colon)	GI50 (HCT-15 colon)	GI50 (HL-60(TB) leukemia)	GI50 (SF-539 CNS)	GI50 (SN12C renal)
O=C(/C(=C\C(=O)c1cccs1)c1ccsc1)c1ccc(Br)cc1	> 100 µM	> 100 µM	> 100 µM	> 100 µM	> 100 µM	> 100 µM	> 100 µM	> 100 µM	> 100 µM	> 100 µM				
CCNc1ccc2c(c1)Cc1ccccc1-2	> 100 µM	> 100 µM	> 100 µM	> 100 µM		> 100 µM	> 100 µM	> 100 µM	> 100 µM	> 100 µM				
Cn1nc2n(c1=O)CCCN2	> 100 µM	> 100 µM	> 100 µM	> 100 µM	> 100 µM		> 100 µM	> 100 µM	> 100 µM	> 100 µM				
CC[N+](C)(CC)CCC(O)(c1ccccc1)c1ccccc1	> 100 µM	> 100 µM	> 100 µM	> 100 µM	> 100 µM	> 100 µM	> 100 µM		> 100 µM	> 100 µM				
COc1ccc(/C=c2\[nH]c3nc(=O)c(N4CCOCC4)c(N)n3c2=O)cc1	> 100 µM	> 100 µM	> 100 µM	> 100 µM	> 100 µM	> 100 µM		> 100 µM	> 100 µM	> 100 µM				
N/N=C1/C2CN3CCN(C2)CC1(c1ccc([N+](=O)[O-])cc1)C3		> 100 µM		> 100 µM	> 100 µM	> 100 µM	> 100 µM	> 100 µM	> 100 µM	> 100 µM				
CC(=O)/C(=C/n1c(=S)[nH]c2ccccc21)C(=O)Nc1ccccc1C	> 100 µM	> 100 µM	> 100 µM	> 100 µM	> 100 µM	> 100 µM		> 100 µM	> 100 µM	> 100 µM				
COc1ccc(N(C)C(=O)N(C)c2ccc([N+](=O)[O-])cc2)cc1	> 100 µM		> 100 µM	> 100 µM	24.2 µM	> 100 µM		96.6 µM	> 100 µM	> 100 µM				
COc1cc2nc(-c3ccc4ccccc4c3)[nH]c(=O)c2cc1OC	> 100 µM	> 100 µM	> 100 µM	> 100 µM	> 100 µM	> 100 µM	> 100 µM		> 100 µM					
COC1OC(Cc2nnc(C)o2)C(OCc2ccccc2)C(OCc2ccccc2)C1OCc1ccccc1 (configuration not stated)	> 100 µM	44.1 µM	> 100 µM	76.3 µM		33 µM		> 100 µM	85.3 µM	> 100 µM				
C[C@@H](O)C(=O)N1[C@@H]2CC3CC[C@]2(CS1(=O)=O)C3(C)C	> 100 µM	> 100 µM	> 100 µM	> 100 µM		> 100 µM	> 100 µM	> 100 µM	> 100 µM	> 100 µM				
COc1cccc(CC(C)NCC(O)c2ccc(O)c(O)c2)c1 (configuration not stated)	> 100 µM	> 100 µM	> 100 µM			51.7 µM	> 100 µM	> 100 µM	83.8 µM	> 100 µM				
OCC1OC(n2cnc3cncnc32)C(O)C1O (configuration not stated)	5.8 µM	1.7 µM	2.08 µM	1.73 µM		5.29 µM		2.94 µM	3.97 µM	1.84 µM				
Cc1ccc(C(C)(C)C[P+](C)(c2ccccc2)c2ccccc2)cc1	> 100 µM	18.7 µM	> 100 µM	7.56 µM		42.7 µM		> 100 µM	> 86.3 µM	> 100 µM				
O=C1CCC2(CCO1)OCCO2	> 100 µM		> 100 µM	> 100 µM	> 100 µM	> 100 µM	> 100 µM	> 100 µM	> 100 µM	> 100 µM				
CC1OC2=N[C@@H]1C(=O)N[C@@H](C(C)C)C1=N[C@H](C(=O)N[C@@H](C(C)C)C3=N[C@H](C(=O)N[C@@H](C(C)C)C4=N[C@H](C(=O)N[C@H]2C(C)C)C(C)O4)C(C)O3)C(C)O1 (some centres not stated)		> 10 µM	> 10 µM	> 10 µM	> 10 µM	> 10 µM	> 10 µM	> 10 µM	> 10 µM	> 10 µM				
[Cl][Pt+2][Cl].[NH-]C1CCCCC1[NH-] (configuration not stated)	> 100 µM	> 49.5 µM and > 70.4 µM and 13.6 µM	35.3 µM and > 100 µM and 37.9 µM	4.49 µM and 8.45 µM and 1.89 µM		> 51.2 µM and > 96.6 µM and 37.9 µM		> 100 µM	> 100 µM	44.1 µM and > 56.4 µM and 13.1 µM	5.58 µM and 4.7 µM and 0.677 µM	884 nM and 1460 nM and 199 nM	21.6 µM and 6.79 µM and 6.99 µM	8.78 µM and 6.22 µM and 2.62 µM
C=C(CCC(C)C1CCC2C3=C(C(=O)CC21C)C1(C)CCC(=O)[C@@H](C)C1CC3=O)C(C)C(=O)O (some centres not stated)	> 100 µM	> 100 µM	> 100 µM	32.6 µM		74.9 µM	> 100 µM	> 100 µM	> 100 µM	> 100 µM				
C/C(=C\c1ccccn1)c1ccccn1	> 100 µM	> 100 µM	> 100 µM		> 100 µM	> 100 µM	> 100 µM							
CCOP(=O)(OCC)C(Nc1cccc(F)c1)c1ccccc1 (configuration not stated)	> 100 µM	> 100 µM	> 100 µM	55.3 µM	> 100 µM	> 100 µM	> 100 µM	> 100 µM	> 100 µM					
O=[N+]([O-])c1c(Br)cc(Br)c2c1Nc1c(ccc(Cl)c1Cl)S2	39.5 µM	26.3 µM	39.7 µM	> 23.9 µM		7.6 µM	35 µM	41.2 µM	27.9 µM	25.7 µM				
Cc1cc(O)c(C(C)C)cc1SC#N		40.5 µM	39.3 µM	> 100 µM		25.3 µM	34.4 µM	37.1 µM		44.5 µM				
C/C=C\C(CC(=O)NCCc1cn(C(=O)OCc2ccccc2)c2ccccc12)CC(=O)OC (configuration not stated)	> 100 µM	> 100 µM	> 100 µM		> 100 µM	> 100 µM	> 100 µM			> 100 µM				
